Patent US7598046B2 (priority 2003, dated 2009)
Like-named read-outs stand apart in the source and are kept apart here.

System: PrP^Sc (conversion of PrP^C into PrP^Sc)
Assay type: biochemical, hamster
Details: for prion replication in vitro (PMCA signal): 30 min at 4° C., without cyclodextrin, 3200-fold and 12800-fold dilutions of scrapie brain homogenate

Apolipoprotein E
prion replication in vitro (PMCA signal) (1 and 10 μg hApo E): increase

Apolipoprotein B
prion replication in vitro (PMCA signal) (8 and 16 μg hApo B): increase

methyl-β-cyclodextrin
prion replication (PrP^Sc signal after PMCA): complete inhibition observed or not (5 mM methyl-β-cyclodextrin, normal brain homogenate treated 30 min, 10 cycles of PMCA, Western blot after PK): not
prion replication (PrP^Sc signal after PMCA) (10 mM methyl-β-cyclodextrin, normal brain homogenate treated 30 min, 10 cycles of PMCA, Western blot after PK): complete inhibition
prion replication (PrP^Sc signal after PMCA) (20 mM methyl-β-cyclodextrin, normal brain homogenate treated 30 min, 10 cycles of PMCA, Western blot after PK): complete inhibition
